Source: a melting point compilation (Tetko et al.; mined from patent text by program, amines drawn as free bases though some values may be those of a salt)
Residues, ends and D or L forms follow the SMILES beside them. *: point of attachment. Boc = CC(C)(C)OC(=O)*; OBn = c1ccc(CO*)cc1

Point of comparison: O=C1CCOc2c(Cl)cc(Br)cc21, melting point 109 °C. Against it:
- O=C(CCCc1cccs1)NC(Cc1ccc(C(F)(F)F)cc1)C(=O)c1ccc(F)cc1 (stereo not drawn) — higher, 123 to 124 °C
- Cn1c(=O)c2c(ncn2CCCN2CC=C(c3c[nH]c4ccc(Br)cc34)CC2)n(C)c1=O — higher, 195 °C
- COC(=O)c1cc2ccc(C(=O)NCCc3ccccn3)cc2[nH]1 — higher, 191 to 193 °C
- C=C(C(=O)OC1CC2CCC(C1)N2C(C)=O)c1ccccc1 (stereo not drawn) — lower, 104 to 107 °C
- CCn1nc(-c2ccc3cc(O)ccc3c2)c2ccc(O)cc21 — higher, 146 to 148 °C
- COc1cccc(N(CCN2CCC(C(=O)c3ccc(F)cc3)CC2)C(=O)c2ccc(N)cc2)c1 — higher, 126 to 128 °C
- CCCS(=O)(=O)N(COC)C(=O)c1nc(OC)cc(OC)n1 — lower, 59 to 62 °C
- CCc1c2nc(-c3cc(S(C)(=O)=O)ccc3OCC(C)C)[nH]c(=O)c2nn1C1CCN(C(C)C)CC1 — higher, 273 to 275 °C
- O=S1(=O)N=C(NC23CC4CC(CC(C4)C2)C3)Nc2cc(Cl)sc21 — higher, 339 to 340 °C
- CNC(=O)c1cc2nc(C(F)(F)F)ccc2c(C)c1NC(=O)c1cc(C(F)(F)F)nn1-c1ncccc1Cl — higher, 227 to 230 °C
- C#CCS(=O)c1c(O)cc(C)oc1=O (stereo not drawn) — higher, 134 °C
- O=[N+]([O-])c1cc(O)c(Br)cc1F — higher, 124 to 126 °C
- CCN(CC)C(=O)C1CCN(Cc2cnc3cc(NC(=O)c4ccc(-c5ccc(F)cc5)cc4)c(C)cc3c2)CC1 — higher, 203 °C
- NCCn1c(=O)nc(-c2ccc3c(c2)OCO3)c2cc3c(cc21)OCO3 — higher, 115 to 120 °C
- O=c1[nH]c2cc(-n3cccc3)c([N+](=O)[O-])cc2n(C2CCCCC2)c1=O — higher, 197 °C
- COc1cc(C(=S)N2CCNCC2)cc(OC)c1OC — higher, 116 to 118 °C
- COC(=O)CCc1cc2c(s1)NC(=O)C(C)N=C2c1ccccc1Cl (stereo not drawn) — higher, 196 to 197 °C
- COC(=O)c1cc(-c2ccc(Cl)cc2)n(-c2ccc(Cl)cc2Cl)n1 — higher, 167 °C
- CC(NC(=O)Oc1cccc2c1C1(C)CCN(C)C1N2C)c1ccccc1 (stereo not drawn) — higher, 151 to 155 °C
- Cn1nnnc1SCC1=NCCc2cc(OCc3ccccc3)c(OCc3ccccc3)cc21 — higher, 146 to 148 °C
- CN1CCN2c3ncc(Br)cc3Cc3ccccc3C2C1 (stereo not drawn) — higher, 126 to 128 °C
- CC1(c2ccccc2)OC(C(=O)O)Oc2ccccc21 (stereo not drawn) — higher, 153 °C
- CCCCc1oc2ccccc2c1C=NOCCCOc1ccc(C(=O)O)cc1-c1ccc(C(F)(F)F)cc1 — higher, 140 °C
- NS(=O)(=O)c1cc(C2CO2)ccc1F (stereo not drawn) — lower, 100 to 103 °C
- CC1CCC(Oc2cc(F)cc(C(=O)Nc3ccc(OCCN4CCOCC4)c4ccccc34)c2)CC1 (stereo not drawn) — lower, 98 to 100 °C
- CS(=O)(=O)c1ccc(-n2nc(C(F)(F)F)cc2-c2ccc(-c3ccoc3)cc2)cc1 — higher, 165 to 166 °C
- COc1cc(C(=O)CCCc2ccccc2)ccc1OCc1ccccc1 — lower, 81 to 82 °C
- OCc1ccc(I)c(Cl)c1 — lower, 80 to 82 °C
- CCCCn1c(=O)c2cc(C(=O)OCC)cn2c2cc(Cl)ccc21 — higher, 172 to 174 °C
- CCCOc1cc2[nH]c(=O)[nH]c(=O)c2cc1OC — higher, 259 to 261 °C
- CC(C)(C)c1ccc(CCC(O)CC2CCCCC2)cc1NC(=O)NCC1c2ccccc2Oc2ccccc21 (stereo not drawn) — higher, 156 to 157 °C
- CS(=O)(=O)Nc1ccc(OCCCCl)cc1 — higher, 120 to 122 °C
- CN(c1cccc2cc(-c3ncc(CCl)s3)[nH]c12)S(=O)(=O)c1cccs1 — higher, 204 to 205 °C
- N#CC(C#N)=C1c2ccccc2-c2c(C(=O)OCCc3ccccc3)cccc21 — higher, 115 to 117 °C
- COc1ccccc1CN=C(Cc1ccccc1)N1CC2C(=O)CCC(c3ccccc3)(c3ccccc3)C2C1 (stereo not drawn) — higher, 146 °C
- O=C(CC1CCC1)N[C@H]1CC[C@H](CCN2CCN(c3nccc4c3CCO4)CC2)CC1 — higher, 193 °C
- O=C1c2ccccc2C(=O)N1CCc1c[nH]c2ccc(CNS(=O)(=O)c3ccccc3)cc12 — higher, 225 to 226 °C
- OCC#Cc1ccc(F)cc1 — lower, 32 to 33 °C
- C#CCNC(=O)N1CC(Oc2ccc(C(F)(F)F)cc2)C1 — higher, 135 to 137 °C
- CCCCCCCC(=O)NCc1cccc(-c2ccc(C=CC(=O)O)cc2)c1 — higher, 176 °C
- COc1cc(NC(=O)c2cc(C(C)C)c(C(C)C)s2)ccc1C(=O)O — higher, 213 to 214 °C
- COC(=O)c1ccc(C(=O)NS(=O)(=O)c2ccc(C(=O)NCCc3ccccc3OC)cc2)cn1 — higher, 220 to 222 °C
- CCCOc1ccccc1-c1nc2[nH]c(=O)nnc2c(=O)[nH]1 — higher, 298 to 299 °C
- CC12CCC3c4ccc(C(=O)O)cc4CCC3C1CCC2C(=O)c1ccc2c(c1)OCO2 (stereo not drawn) — higher, 235 to 237 °C
- CC(C)C(NC(=O)c1ccccn1)C(=O)NC(Cc1ccccc1)C(O)C(O)C(Cc1ccccc1)NC(=O)C(NC(=O)c1ccccn1)C(C)C (stereo not drawn) — higher, 167 to 171 °C
- COc1c(C)c(=O)oc2cc(-c3nnc(C)s3)ccc12 — higher, 177 °C
- O=C(O)C1=Cc2cc(OCc3ccccc3)ccc2OC1 — higher, 184 to 189 °C
- c1ccc(-c2ccc3[nH]nc(Nc4nccs4)c3c2)nc1 — higher, 234 to 236 °C
- N#Cc1cc(Oc2ccc(Cl)c(Cl)c2)cnc1Cl — lower, 76 to 78 °C
- CN(C)CCN(C(=O)OC(C)(C)C)C1=NCC(=O)N(C)c2ccccc21 — lower, < 35 °C
- Oc1c2c(nc3ccc(C4CCCCC4)cc13)CCCC2 — higher, 292 to 295 °C
- CCCONC(=O)c1cc(OC)cc(Oc2cccc(C(F)(F)F)c2)n1 — lower, 75 to 77 °C
- Oc1ccc2c(c1)CCC(n1cc[nH]c1=S)C2 (stereo not drawn) — higher, 240 to 241 °C
- COC(=O)c1ccc(OC)nc1S(=O)(=O)NC(=O)Nc1nc(OC)cc(OC)n1 — higher, 194 to 196 °C
- COc1cc(N)c(C)cc1N=Nc1ccc([N+](=O)[O-])cc1 — higher, 136 to 137 °C
- CC(C)(C)OC(=O)NCC(=O)NCC(=O)OCc1ccccc1 (Boc-Gly-Gly-OBn) — lower, 83 °C
- Cc1nc2c(OCc3ccccc3)cc(CO)cc2n1C — higher, 213 to 214 °C
- O=C(Nc1n[nH]c2nc(Oc3ccc(F)cc3F)ncc12)C1CCCC1 — higher, 206 to 208 °C
- Cc1ccc(-c2cccc(/C=C/C(=O)Nc3ccc(CN4CCCC(O)C4)cc3)c2)cc1 (stereo not drawn) — higher, 132 to 134 °C
- N#Cc1ccc(NS(=O)(=O)c2ccc(Cl)cc2)c([N+](=O)[O-])c1 — higher, 193 to 195 °C
- Cc1c(C(=O)Nc2ccc(N3CCC(N4CCOCC4)CC3)c(C#N)c2)cnn1-c1ccc(I)cc1 — higher, 280 °C
- COc1ccccc1N1CCN(CCC(C#N)(c2ccccc2)c2ccccc2[N+](=O)[O-])CC1 (stereo not drawn) — lower, 61 to 64 °C
- CCOC(=O)C(=CN)C(=O)c1cc(F)c(F)c(F)c1F — higher, 118 to 119 °C
- CC(=O)c1cn(C)cc(-c2cccc(C(F)(F)F)c2)c1=O — higher, 130 to 131 °C
- Cc1c(N[C@@H](c2nnc(-c3ccc(F)c(O)c3)o2)[C@H](C)O)ccc(C#N)c1Cl — lower, 103 to 108 °C
- C=Cn1cccc(O)c1=S — lower, 84 °C
- Clc1c(Cl)c(Cl)c2[nH]c(NC3=NCCN3)nc2c1Cl — higher, 310 °C
- CN1CCSC1=NCN1C(=O)CCC1=O — higher, 142 to 144 °C
- N#CCN1C(=O)COc2cc(F)c(-n3c(=O)n4n(c3=O)CCCC4)cc21 — higher, 286 to 287 °C
- COc1cc2c(cc1OCc1ccccc1)CCNC2c1ccccc1 (stereo not drawn) — higher, 118 to 119 °C
- COCc1ccc(C2(O)CCN(CC(O)c3ccc(O)cc3)CC2)cc1 (stereo not drawn) — higher, 170 °C
- c1cncc(-c2cc(C3CC3)on2)c1 — lower, 70 to 73 °C
- CCOC(=O)c1ccc(NC(=O)CC(C(=O)Nc2ccc(NC(=O)Nc3ccccc3C)cc2)c2ccccc2)cc1 (stereo not drawn) — higher, > 220 °C
- CCOC(=O)C(CC(C)C)NC(=O)C(Cc1ccccc1)NC(=O)CNC(=O)CNC(=O)C(Cc1ccc(OCc2ccccc2)cc1)NC(=O)OC(C)(C)C (stereo not drawn) — higher, 149 to 152 °C
- CCOC(=O)c1ncc2[nH]c3ccc(I)cc3c2c1COC — higher, 204 to 206 °C
- COC(=O)c1cccc(C=O)c1O — lower, 82 to 84 °C
- O=C1CN(C(=O)N2CCOCC2)c2ccccc2N1 — higher, 180 °C
- O=P(O)(O)C(O)(CCCc1ccc(Cl)cc1)P(=O)(O)O — higher, 181 °C
- CCc1nc2c(-c3cc4c(cc3C)OCC4)ncnc2n1C(C1CC1)C1CC1 — higher, 147 to 148 °C
- CCOC(=O)Cc1cc(Br)c(C(=O)c2ccc(C)cc2)n1C — lower, 85 to 87 °C
- O=C1CCc2cc(Cl)ccc2C(=O)CCCN1 — higher, 142 to 144 °C
- O=S(=O)(NCCCCCOc1ccc(-n2ccnc2)cc1)c1ccc(Br)cc1 — higher, 137 to 138 °C
- CS(=O)(=O)N=C(Oc1ccccc1)Oc1ccccc1 — higher, 124 to 126 °C
- CCCNC(=O)Cc1c(-c2ccc(C)s2)nc2sc3ccccc3n12 — higher, 204 to 206 °C
- CCN(CC)CCNC(=O)c1c(I)ccc2cc3ccccc3nc12 — lower, 81 to 83 °C
- Nc1ccc(S(=O)(=O)c2cc(N)cc(Br)n2)cc1 — higher, 202 to 204 °C
- COc1cc2c(c3c1OC(C)(C)C3)C(c1ccccc1-c1ccncc1)=NC(C)(C)C2 — higher, 187 to 189 °C
- Cc1ccc(C)n1-c1nc(S(=O)(=O)Nc2c(Cl)cccc2Cl)n[nH]1 — lower, 107 to 108 °C
- CCOC(=O)c1c2ccc(CC(=O)NOCC(=O)N3CCCCC3)ccc-2c(C(=O)OCC)c1N — higher, 153 to 155 °C
- COc1cc(OCc2ccccn2)ccc1/C=C/c1cc(/C=C/c2ccccc2)[nH]n1 — higher, 143 to 146 °C
- CS(=O)(=O)c1ccc(-n2nc(C(F)(F)F)cc2-c2nc3ccc(F)cc3s2)cc1 — higher, 194 to 196 °C
- Cc1ccc(-c2c(-c3ccc(S(C)(=O)=O)cc3)cnn(-c3ccc(F)c(F)c3)c2=O)cc1 — higher, 190 to 192 °C
- COC(=O)CNc1cccc(CF)c1 — lower, 47 to 47.5 °C
- CCOC(=O)c1c(Br)nn(C)c1S(N)(=O)=O — lower, 96 to 98 °C
- Cc1c(S(C)(=O)=O)cc([N+](=O)[O-])c(Cl)c1[N+](=O)[O-] — higher, 174 to 175 °C
- CN(C(=O)c1ccccc1NC(=O)N[C@@H](Cc1ccc(NC(=O)c2c(Cl)cccc2Cl)cc1)C(=O)O)c1ccccc1 — higher, 178 °C
- N#CCCNC(=O)c1cccc(-c2cccc(Oc3cccc(Cl)c3)n2)c1 — higher, 139 to 140 °C
